Experiment [1] is described as follows: Inhibition of HCV genotype 1b NS3/4A protease. Also on record: species or system Hepatitis C virus subtype 1b.
For the next experiment, the system named is Hepatitis C virus. In words: Antiviral activity against HCV genotype 1b infected in Rluc cells by 384 well-format assay. The class given is functional, organism-based, Hepacivirus hominis.

These results are taken from ChEMBL document CHEMBL3112464, “Novel, sulfonamide linked inhibitors of the hepatitis C virus NS3 protease” (Bioorg Med Chem Lett, 2014).

SMILES strings stand for the structures.

As a reminder, the IC50 is the concentration that gives 50% inhibition. Higher therefore signals a need for much substance. As a reminder, the EC50 is the concentration that produces a half-maximal response. Read a low EC50 as an effect from little substance. As to `COc1ccc2c(O[C@@H]3C[C@H]4C(=O)N[C@]5(C(=O)NS(=O)(=O)C6CC6)C[C@H]5/C=C\CCCCCCS(=O)(=O)N4C3)cc(-c3nc(C(C)C)cs3)nc2c1C`, it took 13 nM to reach half-maximal inhibition in experiment [1] (IC50). The same compound registered an EC50 in the experiment on Hepatitis C virus of 440 nM.
For `COc1ccc2c(O[C@@H]3C[C@H]4C(=O)N[C@]5(C(=O)O)C[C@H]5/C=C\CCCCCS(=O)(=O)N4C3)cc(-c3nc(C(C)C)cs3)nc2c1C`, in that order: 747 nM and over 2000 nM.
For `C=C[C@@H]1C[C@]1(NC(=O)[C@@H]1C[C@@H](Oc2cc(-c3nc(C(C)C)cs3)nc3c(C)c(OC)ccc23)[C@H]2CCCC(=O)N21)C(=O)NS(=O)(=O)C1CC1`, in that order: 47 nM and over 2000 nM.
With `COc1ccc2c(O[C@@H]3C[C@H]4C(=O)N[C@]5(C(=O)NS(=O)(=O)C6CC6)C[C@H]5CCCCCCCCS(=O)(=O)N4C3)cc(-c3nc(C(C)C)cs3)nc2c1C`, half-maximal inhibition in experiment [1] (IC50) was put at 7.4 nM. The EC50 in the experiment on Hepatitis C virus worked out at 257 nM.
For `COc1ccc2c(O[C@@H]3C[C@H]4C(=O)N[C@]5(C(=O)O)C[C@H]5/C=C\CCCCCCS(=O)(=O)N4C3)cc(-c3nc(C(C)C)cs3)nc2c1C`, in that order: 712 nM and over 2000 nM.
For `COc1ccc2c(O[C@@H]3C[C@H]4C(=O)N[C@]5(C(=O)NS(=O)(=O)C6CC6)C[C@H]5CCCCCCCS(=O)(=O)N4C3)cc(-c3nc(C(C)C)cs3)nc2c1C`, in that order: 4.7 nM and 89 nM.
For `COc1ccc2c(O[C@@H]3C[C@H]4C(=O)N[C@]5(C(=O)NS(=O)(=O)C6CC6)C[C@H]5/C=C\CCCCCC(=O)N4C3)cc(-c3nc(C(C)C)cs3)nc2c1C`, in that order: 0.4 nM and 4 nM.
`C=C[C@@H]1C[C@]1(NC(=O)[C@@H]1C[C@@H](Oc2cc(-c3nc(C(C)C)cs3)nc3c(C)c(OC)ccc23)[C@H]2CCCS(=O)(=O)N21)C(=O)NS(=O)(=O)C1CC1` registered an IC50 in experiment [1] of 639 nM. Moreover, the EC50 with Hepatitis C virus was over 2000 nM.
`COc1ccc2c(O[C@@H]3C[C@H]4C(=O)N[C@]5(C(=O)NS(=O)(=O)C6CC6)C[C@H]5/C=C\CCCCCCC(=O)N4C3)cc(-c3nc(C(C)C)cs3)nc2c1C`: in experiment [1], the IC50 is 0.3 nM. Also, it took 5.8 nM to reach a half-maximal effect in the experiment with Hepatitis C virus (EC50).
Compound `COc1ccc2c(O[C@@H]3C[C@H]4C(=O)N[C@]5(C(=O)NS(=O)(=O)C6CC6)C[C@H]5/C=C\CCCCCS(=O)(=O)N4C3)cc(-c3nc(C(C)C)cs3)nc2c1C` showed an IC50 in experiment [1] of 2.9 nM. The midpoint of the response in the experiment on Hepatitis C virus, the EC50, lay at 79 nM.
